The values below are quoted from earlier work in US20080138412A1, “Sustained release alfuzosin hydrochl formulation and method for their production” (priority 2006, published 2008).

Structures can show the parent of a compound that is named as a salt.

`COc1cc2nc(N(C)CCCNC(=O)C3CCCO3)nc(N)c2cc1OC` (stereo not shown) [Alfuzosin hydrochloride]: the half-life result was “about 9 hours”.
